Values after ≈ are worked out from the molar mass of the structure shown. Like-named read-outs stand apart in the source and are kept apart here.
Key:
[1] = system: HSV-1 (McIntyre); assay: Antiviral activity, virus-induced cytopathogenicity in E6SM cell cultures; assay type: cell-based; settings: for Selectivity index: E6SM; for IC50: Human alphaherpesvirus 1, read-out: Activity: minimum inhibitory concentration required to reduce virus-induced cytopathogenicity by 50% (IC50), E6SM cell cultures
Description: (§1) The anti-herpesvirus activity of D-cyclohexene G and L-cyclohexene G and the respective adenine analogues was determined in human embryonic skin muscle fibroblast (E6SM: HSV-1, HSV-2) and in human embryonic lung (HEL) cells [varicella-zoster virus (VZV), cytomegalovirus (CMV)] (Table I).

[2] = system: HSV-1 (F); assay: as above; assay type: cell-based; settings: for Selectivity index: E6SM; for IC50: Human alphaherpesvirus 1, read-out: Activity: minimum inhibitory concentration required to reduce virus-induced cytopathogenicity by 50% (IC50), E6SM cell cultures
Description: as §1

[3] = system: HSV-1 (TK−KOS ACVf); assay: as above; assay type: cell-based; settings: for Selectivity index: HSV-1 (TK−KOS ACVf), E6SM; for IC50: Human alphaherpesvirus 1, E6SM, read-out: Activity: minimum inhibitory concentration required to reduce virus-induced cytopathogenicity by 50% (IC50)
Description: as §1

[4] = system: HSV-2 (G); assay: as above; assay type: cell-based; settings: for Selectivity index: E6SM; for IC50: Human alphaherpesvirus 2, read-out: Activity: minimum inhibitory concentration required to reduce virus-induced cytopathogenicity by 50% (IC50), E6SM cell cultures
Description: as §1

[5] = system: HSV-1 (KOS); assay: as above; assay type: cell-based; settings: for Selectivity index: E6SM; for IC50: Human alphaherpesvirus 1, read-out: Activity: minimum inhibitory concentration required to reduce virus-induced cytopathogenicity by 50% (IC50), E6SM cell cultures
Description: as §1

[6] = system: HSV-1 (TK−/TKf VMW1837); assay: as above; assay type: cell-based; settings: for Selectivity index: HSV-1 (TK−/TKf VMW1837), E6SM; for IC50: Human alphaherpesvirus 1, E6SM, read-out: Activity: minimum inhibitory concentration required to reduce virus-induced cytopathogenicity by 50% (IC50)
Description: as §1

[7] = system: HSV-2 (196); assay: as above; assay type: cell-based; settings: for Selectivity index: E6SM; for IC50: Human alphaherpesvirus 2, read-out: Activity: minimum inhibitory concentration required to reduce virus-induced cytopathogenicity by 50% (IC50), E6SM cell cultures
Description: as §1

[8] = system: HSV-2 (Lyons); assay: as above; assay type: cell-based; settings: for Selectivity index: E6SM; for IC50: Human alphaherpesvirus 2, read-out: Activity: minimum inhibitory concentration required to reduce virus-induced cytopathogenicity by 50% (IC50), E6SM cell cultures
Description: as §1

[9] = system: VZV and CMV; assay: Potency against VZV and CMV; assay type: cell-based
Description: as §1

[10] = system: Vero; assay: Cytotoxicity, alteration of cell morphology; assay type: cell-based
[11] = system: HEL; assay: Cytotoxicity, HEL (footnote c not given); settings: HEL (footnote c, not defined)
Description: as §1

[12] = system: HEL; assay: Cytotoxicity, cell growth; settings: HEL (footnote b)
[13] = system: VZV (YS); assay: Antiviral activity, virus plaque formation in HEL cells; assay type: cell-based, varicella-zoster virus; settings: for Selectivity index: HEL
Description: as §1

[14] = system: CMV (AD 169); assay: as above; assay type: cell-based, cytomegalovirus; settings: for Selectivity index: HEL; for IC50: Human betaherpesvirus 5, read-out: Activity: inhibitory concentration required to reduce virus plaque formation by 50% (IC50), HEL cells, virus input 20 PFU
Description: as §1

[15] = system: CMV (Davis); assay: as above; assay type: cell-based, cytomegalovirus; settings: for Selectivity index: HEL; for IC50: Human betaherpesvirus 5, read-out: Activity: inhibitory concentration required to reduce virus plaque formation by 50% (IC50), HEL cells, virus input 20 PFU
Description: as §1

[16] = system: HeLa, Vero, E6SM, HEL
[17] = Cytotoxicity, alteration of cell morphology
Description: as §1

[18] = system: HeLa; assay: Cytotoxicity, alteration of cell morphology; assay type: cell-based
[19] = system: VZV (OKA); assay: microbe, parasite or virus in culture; assay type: cell-based, varicella-zoster virus; settings: for IC50: Human alphaherpesvirus 3, HEL, read-out: Activity: inhibitory concentration required to reduce virus plaque formation by 50% (IC50); for Selectivity index: VZV (OKA), HEL
Description: as §1

[20] = system: VZV (TK−07/1); assay: microbe, parasite or virus in culture; assay type: cell-based, varicella-zoster virus; settings: for IC50: Human alphaherpesvirus 3, HEL, read-out: Activity: inhibitory concentration required to reduce virus plaque formation by 50% (IC50); for Selectivity index: VZV (TK−07/1), HEL
Description: as §1

[21] = system: VZV (TK−YS/R); assay: microbe, parasite or virus in culture; assay type: cell-based, varicella-zoster virus; settings: for IC50: Human alphaherpesvirus 3, HEL, read-out: Activity: inhibitory concentration required to reduce virus plaque formation by 50% (IC50); for Selectivity index: VZV (TK−YS/R), HEL
Description: as §1

[22] = Human alphaherpesvirus 3, read-out: Activity: inhibitory concentration required to reduce virus plaque formation by 50% (IC50), VZV (YS), HEL cells, virus input 20 PFU

For `Nc1nc2c(ncn2[C@H]2C=C[C@@H](CO)[C@H](O)C2)c(=O)[nH]1` [L-cyclohexenyl G, 9-[(1R,4S,5R)-5-Hydroxy-4-hydroxymethyl-2-cyclohexenyl]guanine], the Selectivity index [1] was >4.10^3, the IC50 [1] was 0.004 µg/mL (≈ 0.0144 µM) and the Selectivity index [2] was >5.10^3. The IC50 [2] was 0.003 µg/mL (≈ 0.0108 µM), the Selectivity index [3] was over 12 and the IC50 [3] was 1.28 µg/mL (≈ 4.62 µM). For the same compound, the Selectivity index [4] was >2.2 10^2, the IC50 [4] was 0.07 µg/mL (≈ 0.252 µM) and the Selectivity index [5] was >5.10^3. The IC50 [5] was 0.003 µg/mL (≈ 0.0108 µM), the Selectivity index [6] was >1.6 10^3 and the IC50 [6] was 0.01 µg/mL (≈ 0.0361 µM). The Selectivity index [7] was >1.6 10^2, the IC50 [7] was 0.1 µg/mL (≈ 0.361 µM) and the Selectivity index [8] was >2.2 10^2. The IC50 [8] was 0.07 µg/mL (≈ 0.252 µM), the “Potency relative to D-cyclohexene G (fold lower)” value [9] was “about 2 fold” and the “Minimum cytotoxic concentration causing a microscopically detectable alteration of cell morphology” value [10] was 400 μg/ml. For the same compound, the “Cytotoxicity (concentration)” value [11] was over 20 µg/mL, the melting point was 255 °C (dec.) and the “Cytotoxic concentration required to reduce cell growth by 50%” value [12] was over 20 µg/mL. The IC50 [13, 22] was 1.2 µg/mL (≈ 4.33 µM), the Selectivity index ([13]; VZV (YS)) was over 16 and the Selectivity index [14] was over 13. For the same compound, the IC50 [14] was 1.5 µg/mL (≈ 5.41 µM), the Selectivity index [15] was over 12 and the IC50 [15] was 1.7 µg/mL (≈ 6.13 µM). The “Toxicity in four different cell lines” value [16] was “did not show toxicity”, the “Minimum cytotoxic concentration causing a microscopically detectable alteration of cell morphology” value ([17]; E8SM) was over 18 μg/ml and the “Minimum cytotoxic concentration causing a microscopically detectable alteration of cell morphology” value [18] was 400 μg/ml. The IC50 [19] was 1.9 µg/mL (≈ 6.85 µM), the Selectivity index [19] was over 10 and the IC50 [20] was 5.8 µg/mL (≈ 20.9 µM). The Selectivity index [20] was over 3, the IC50 [21] was 6.8 µg/mL (≈ 24.5 µM) and the Selectivity index [21] was over 3.

For `Nc1nc2c(ncn2[C@@H]2C=C[C@H](CO)[C@@H](O)C2)c(=O)[nH]1` [D-cyclohexenyl G, 9-[(1S,4R,5S)-5-hydroxy-4-hydroxymethyl-2-cyclohexenyl]guanine], the Selectivity index [1] was >1.10^5, the IC50 [1] was 0.004 µg/mL (≈ 0.0144 µM) and the Selectivity index [2] was >2.10^5. For the same compound, the IC50 [2] was 0.002 µg/mL (≈ 0.00721 µM), the Selectivity index [3] was >1.10^3 and the IC50 [3] was 0.38 µg/mL (≈ 1.37 µM). The Selectivity index [4] was >8.10^3, the IC50 [4] was 0.05 µg/mL (≈ 0.18 µM) and the Selectivity index [5] was >2.10^5. For the same compound, the IC50 [5] was 0.002 µg/mL (≈ 0.00721 µM), the Selectivity index [6] was >4.10^4 and the IC50 [6] was 0.01 µg/mL (≈ 0.0361 µM). For the same compound, the Selectivity index [7] was >5.10^3, the IC50 [7] was 0.07 µg/mL (≈ 0.252 µM) and the Selectivity index [8] was >5.10^3. For the same compound, the IC50 [8] was 0.07 µg/mL (≈ 0.252 µM), the “Minimum cytotoxic concentration causing a microscopically detectable alteration of cell morphology” value [10] was 400 μg/ml and the “Cytotoxicity (concentration)” value [11] was 11 µg/mL. The “Cytotoxic concentration required to reduce cell growth by 50%” value [12] was over 20 µg/mL, the IC50 [13, 22] was 0.49 µg/mL (≈ 1.77 µM) and the Selectivity index ([13]; VZV (YS)) was over 40. For the same compound, the Selectivity index [14] was over 30, the IC50 [14] was 0.6 µg/mL (≈ 2.16 µM) and the Selectivity index [15] was over 25. The IC50 [15] was 0.8 µg/mL (≈ 2.89 µM), the “Toxicity in four different cell lines” value [16] was “did not show toxicity” and the “Minimum cytotoxic concentration causing a microscopically detectable alteration of cell morphology” value ([17]; E8SM) was over 400 μg/ml. For the same compound, the “Minimum cytotoxic concentration causing a microscopically detectable alteration of cell morphology” value [18] was 400 μg/ml, the IC50 [19] was 0.64 µg/mL (≈ 2.31 µM) and the Selectivity index [19] was over 30. For the same compound, the IC50 [20] was 2.1 µg/mL (≈ 7.57 µM), the Selectivity index [20] was over 10 and the IC50 [21] was 2.8 µg/mL (≈ 10.1 µM). The Selectivity index [21] was over 7.

With `Nc1ncnc2c1ncn2[C@@H]1C=C[C@H](CO)[C@@H](O)C1` [Compound 36, 9-[(1S,4R,5S)-5-Hydroxy-4-hydroxymethyl-2-cyclohexenyl]adenine] the melting point was 90 to 92 °C.

For `O=c1[nH]c(=O)n([C@H]2C[C@H](O)[C@@H](CO)O2)cc1/C=C/Br` [Brivudin, reference compound], the IC50 [1] was 0.001 µg/mL (≈ 0.003 µM), the IC50 [2] was 0.001 µg/mL (≈ 0.003 µM) and the IC50 [3] was over 80 µg/mL. It also gave an IC50 [4] of over 80 µg/mL, an IC50 [5] of 0.001 µg/mL (≈ 0.003 µM) and an IC50 [6] of over 80 µg/mL. The IC50 [7] was over 80 µg/mL, the IC50 [8] was over 80 µg/mL and the “Minimum cytotoxic concentration causing a microscopically detectable alteration of cell morphology” value [10] was “≧400 μg/ml”. For the same compound, the “Cytotoxicity (concentration)” value [11] was over 200 µg/mL, the “Cytotoxic concentration required to reduce cell growth by 50%” value [12] was over 50 µg/mL and the IC50 ([13]; Human alphaherpesvirus 3, HEL, read-out: Activity: inhibitory concentration required to reduce virus plaque formation by 50% (IC50)) was 0.03 µg/mL (≈ 0.0901 µM). For the same compound, the “Minimum cytotoxic concentration causing a microscopically detectable alteration of cell morphology” value ([17]; E8SM) was “≧400 μg/ml”, the “Minimum cytotoxic concentration causing a microscopically detectable alteration of cell morphology” value [18] was “≧400 μg/ml” and the IC50 [19] was 0.003 µg/mL (≈ 0.00901 µM). The IC50 [20] was over 20 µg/mL and the IC50 [21] was over 50 µg/mL.

Work on `Nc1nc2c(ncn2COCCO)c(=O)[nH]1` [Acyclovir, reference compound] yielded an IC50 [1] of 0.005 µg/mL (≈ 0.0222 µM), an IC50 [2] of 0.003 µg/mL (≈ 0.0133 µM) and an IC50 [3] of 9.6 µg/mL (≈ 42.6 µM). For the same compound, the IC50 [4] was 0.02 µg/mL (≈ 0.0888 µM), the IC50 [5] was 0.01 µg/mL (≈ 0.0444 µM) and the IC50 [6] was 0.07 µg/mL (≈ 0.311 µM). For the same compound, the IC50 [7] was 0.02 µg/mL (≈ 0.0888 µM), the IC50 [8] was 0.02 µg/mL (≈ 0.0888 µM) and the IC50 [13, 22] was 1.1 µg/mL (≈ 4.88 µM).

For `Nc1nc(O)c2ncn(COC(CO)CO)c2n1` [Ganciclovir, reference compound], the IC50 [1] was 0.001 µg/mL (≈ 0.00392 µM), the IC50 [2] was 0.001 µg/mL (≈ 0.00392 µM) and the IC50 [3] was 0.48 µg/mL (≈ 1.88 µM). It also gave an IC50 [4] of 0.002 µg/mL (≈ 0.00784 µM), an IC50 [5] of 0.001 µg/mL (≈ 0.00392 µM) and an IC50 [6] of 0.01 µg/mL (≈ 0.0392 µM). The IC50 [7] was 0.001 µg/mL (≈ 0.00392 µM), the IC50 [8] was 0.001 µg/mL (≈ 0.00392 µM) and the “Cytotoxicity (concentration)” value [11] was over 50 µg/mL. The “Cytotoxic concentration required to reduce cell growth by 50%” value [12] was over 50 µg/mL, the IC50 [14] was 0.6 µg/mL (≈ 2.35 µM) and the IC50 [15] was 0.8 µg/mL (≈ 3.13 µM). The “Minimum cytotoxic concentration causing a microscopically detectable alteration of cell morphology” value ([17]; human) was over 100 μg/ml.

In the case of `Nc1ccn(C[C@@H](CO)OCP(=O)(O)O)c(=O)n1` [Cidolovir, reference compound], the “Cytotoxicity (concentration)” value [11] is reported as over 50 µg/mL, the “Cytotoxic concentration required to reduce cell growth by 50%” value [12] is reported as over 50 µg/mL and the IC50 [14] is reported as 0.08 µg/mL (≈ 0.287 µM). It also gave an IC50 [15] of 0.2 µg/mL (≈ 0.716 µM).
